Experimental data: patent US5698547A, “Cephalosporin antibiotics” (Microcide Pharmaceuticals, Inc., priority 1995, dated 1997)
In brackets after ≈: the same amount, converted by molar mass. Where a name gives a salt, the structure may show the parent alone.

Tested on: S. aureus Col (Meth^R) (lac^-)
Assay: MIC by agar dilution, S. aureus Col (Meth^R) (lac^-)
Type: cell-based
Conditions: Staphylococcus aureus; agar dilution; S. aureus Col (Meth^R) (lac^-); read-out: MIC
Procedure: The compounds of the invention were evaluated against several β-lactamresistant bacteria strains by determining the minimum inhibitory concentration (MIC, μg/ml) of each compound with respect to each strain. The MIC, the lowest concentration of antibiotic which inhibits growth of the test organism, was determined by the agar dilution method.
To determine the MIC for bacterial isolates, the test compound was incorporated in a series of two-fold dilutions into liquified Mueller-Hinton agar. Upon solidification, a number of different bacterial strains were spot inoculated with a replicating device onto the agar surface. […] The procedures used in these studies have been standardized by the National Committee for Clinical Laboratory Standards (NCCLS), as per the NCCLS publication entitled METHODS FOR DILUTION ANTIMICROBIAL SUSCEPTIBILITY TESTS (1991), which is incorporated herein by reference.
Aliquots of antimicrobial agents were prepared in phosphate buffered saline (PBS) at pH 7.2. Tween 20 or DMSO was used as a solubilizing vehicle as needed. Standard methods of vortexing, sonicating and gentle heat were used to facilitate solubilizing the test agent. Typically, the concentration of the stock solution was 10× that of the highest drug concentration tested. A 1.28 mg/mL stock solution was used with a subsequent highest working concentration of 128 μg/mL. Serial two-fold dilutions were done through ≤0.25 μg/mL. Each drug level was tested in duplicate. Two-fold drug dilutions were done in sterile 50 mL tubes with a final drug volume of 5 mL. Upon the addition of 45 mL of molten agar, a 10-fold dilution resulted. Two, 25 mL. plates were then poured into 15×150 mm square Petri plates with grids and allowed to harden.
A control plate with a reference drug, either cefotaxime, vancomycin or imipenem, was used as the positive growth control. Stock concentrations of reference antibiotics were prepared and frozen at -80° C. Upon preparation, the control plates were sealed and stored in the refrigerator for up to 1 week prior to use; however, imipenem control plates had to be prepared just prior to use. All test plates were used within 24 hours of preparation.
Satisfactory results were obtained where the inoculum contained about 10^4 colony forming units (cfu) ±0.5 logs. Starting with pure cultures of the test isolates on agar plates, a few isolated colonies were transferred to a tube of nutrient broth and allowed to grow 4-6 hours at 35°-36° C. to reach log-phase growth. Dropwise addition of the broth culture to PBS was done to match a 0.5 McFarland turbidity standard equal to 10^8 cfu/mL. This was further diluted ten-fold in PBS to reach a working inoculum concentration of 10^7 cfu/mL. When 1 μL of the working inoculum was applied to the agar surface a concentration of about 10^4 cfu per spot was obtained.
Disposable sterile 1 μL loops were used to inoculate test plates, with each isolate in a designated grid on the agar plate. An alternate method of inoculation involved the use of a replica plater, a device with 48 steel pins allowing the simultaneous inoculation of multiple isolates. After the spots had dried, the plates were incubated at 35°-36° C. for 16-20 hours. Endpoints were assessed as the minimum inhibitory concentration (MIC) of antimicrobial agent.
The novel agents of this invention are notable for their enhanced activity against S. aureus Col and Enterococci (E. faecium and E. faecalis). The S. aureus Col strain is a high-level PBP2a producer, whereas S. aureus Col 8A, its isogenic partner, lacks PBP2a. […] Thus, the compounds of the present invention are effective against PBP2a-producing bacteria.

For O=C(Cc1ccccc1)N[C@@H]1C(=O)N2C(C(=O)O)=C(Sc3ccc(-c4ccccc4)cc3)CS[C@H]12 [Cmpd 8, (7R)-7-[(Phenylacetyl)amino]-3-(4-biphenylthio)-3-cephem-4-carboxylic acid], which MIC is on record?
The MIC was 4 µg/mL (≈ 7.96 µM).

For N=C(N)SCCc1ccccc1SC1=C(C(=O)O)N2C(=O)[C@@H](NC(=O)Cc3ccccc3)[C@H]2SC1 [Cmpd 100, (7R)-7-[(Phenylacetyl)amino]-3-(2-(2-isothiouronium)ethylphenylthio)-3-cephem-4-carboxylate, inner salt], which MIC is on record?
Its MIC is 4 µg/mL.

N=C(N)SCc1ccccc1SC1=C(C(=O)O)N2C(=O)[C@@H](NC(=O)Cc3ccc(O)cc3)[C@H]2SC1 [Cmpd 99, (7R)-7-[((4-Hydroxyphenyl)acetyl)amino]-3-(2-isothiouroniummethylphenylthio)-3-cephem-4-carboxylic acid, inner salt] was tested. Which MIC did it give?
The MIC was 4 µg/mL.

How did the MIC turn out when O=C(Cc1ccccc1)N[C@@H]1C(=O)N2C(C(=O)O)=C(Sc3ccccc3CO)CS[C@H]12 [Cmpd 38, (7R)-7-[(Phenylacetyl)amino]-3-(2-hydroxymethylphenylthio)-3-cephem-4-carboxylic acid] was run?
The MIC was 4 µg/mL (≈ 8.76 µM).

With Nc1nc(/C(=N/OCCF)C(=O)N[C@@H]2C(=O)N3C(C(=O)O)=C(Sc4ccnn4-c4ccccc4)CS[C@H]23)cs1 [Cmpd 90, (7R)-7-[(Z)-2-(aminothiazol-4-yl)-2-(2-fluoroethyloxyimino)acetamido]-3-(1-N-phenylpyrazol-5-ylthio)-3-cephem-4-carboxylic acid] as the molecule, how does the MIC read?
Its MIC is 8 µg/mL (≈ 13.6 µM).

How did the MIC turn out when O=C(Cc1ccccc1)N[C@@H]1C(=O)N2C(C(=O)O)=C(Sc3ccc(Cl)cc3)CS[C@H]12 [Cmpd 3, (7R)-7-[(Phenylacetyl)amino]-3-(p-chlorophenylthio)-3-cephem-4-carboxylic acid] was run?
Its MIC is 2 µg/mL (≈ 4.34 µM).

How did the MIC turn out when O=C(Cc1ccccc1)N[C@@H]1C(=O)N2C(C(=O)O)=C(Sc3ccc(-c4ccccc4)cc3Br)CS[C@H]12 [Cmpd 11, (7R)-7-[(Phenylacetyl)amino]-3-(2-bromo-4-biphenylthio)-3-cephem-4-carboxylic acid] was run?
Its MIC is 1 µg/mL (≈ 1.72 µM).

How did the MIC turn out when Nc1nc(/C(=N/OCCF)C(=O)N[C@@H]2C(=O)N3C(C(=O)O)=C(Sc4ccnn4-c4ccccc4)CS[C@H]23)c(Cl)s1 [Cmpd 98, (7R)-7-[(Z)-2-(2-amino-5-chlorothiazol-4-yl)-2-(2-fluoroethyloxyimino)acetamido]-3-(1-N-phenylpyrazol-5-ylthio)-3-cephem-4-carboxylic acid] was run?
The MIC was 2 µg/mL (≈ 3.2 µM).

O=C(Cc1ccccc1)N[C@@H]1C(=O)N2C(C(=O)[O-])=C(Sc3ccc[n+](Cc4ccccc4)c3-c3ccccc3)CS[C@H]12 [Cmpd 83, (7R)-7-[(Phenylacetyl)amino]-3-(2-phenyl-N-benzylpyridin-3-iumthio)-3-cephem-4-carboxylate] was tested. Which MIC did it give?
The MIC was 4 µg/mL (≈ 6.74 µM).

O=C(Cc1ccccc1)N[C@@H]1C(=O)N2C(C(=O)O)=C(Sc3cccc(I)c3)CS[C@H]12 [Cmpd 2, (7R)-7-[(Phenylacetyl)amino]-3-(m-iodophenylthio)-3-cephem-4-carboxylic acid] was tested. Which MIC did it give?
Its MIC is 2 µg/mL (≈ 3.62 µM).

For O=C(Cc1ccco1)N[C@@H]1C(=O)N2C(C(=O)O)=C(Sc3ccnn3-c3ccccc3)CS[C@H]12 [Cmpd 111, (7R)-7-[(2-furylacetyl)amino]-3-(1-N-phenylpyrazol-5-ylthio)-3-cephem-4-carboxylic acid], which MIC is on record?
Its MIC is 8 µg/mL (≈ 16.6 µM).

Which MIC does the source give for O=C(Cc1ccccc1)N[C@@H]1C(=O)N2C(C(=O)O)=C(Sc3ccccc3CSc3ncn[nH]3)CS[C@H]12 [Cmpd 67, (7R)-7-[(Phenylacetyl)amino]-3-(2-(1,2,4-triazol-5-ylthiomethyl)phenylthio)-3-cephem-4-carboxylic acid] here?
Its MIC is 4 µg/mL (≈ 7.41 µM).

O=C(Cc1ccccc1)N[C@@H]1C(=O)N2C(C(=O)O)=C(Sc3ccc(Br)cc3Br)CS[C@H]12 [Cmpd 39, (7R)-7-[(Phenylacetyl)amino]-3-(2,4-dibromophenylthio)-3-cephem-4-carboxylic acid] was tested. Which MIC did it give?
Its MIC is 0.5 µg/mL (≈ 0.856 µM).

For O=C(Cc1ccccc1)N[C@@H]1C(=O)N2C(C(=O)O)=C(Sc3ccccc3CSc3ncccn3)CS[C@H]12 [Cmpd 75], which MIC is on record?
The MIC was 8 µg/mL (≈ 14.5 µM).

For Nc1nc(/C(=N/OC2CCCC2)C(=O)N[C@@H]2C(=O)N3C(C(=O)O)=C(Sc4cccnc4-c4ccccc4)CS[C@H]23)cs1 [Cmpd 86, (7R)-7-[(Z)-2-(aminothiazol-4-yl)-2-(cyclopentyloxyimino)acetamido]-3-(2-phenylpyridin-3-ylthio)-3-cephem-4-carboxylic acid], which MIC is on record?
Its MIC is 8 µg/mL (≈ 12.8 µM).

Which MIC does the source give for N=C(N)NCc1ccccc1SC1=C(C(=O)O)N2C(=O)[C@@H](NC(=O)Cc3ccccc3)[C@H]2SC1 [Cmpd 128, (7R)-7-[(Phenylacetyl)amino]-3-(2-guanidiniummethylphenylthio)-3-cephem-4-carboxylate, inner salt] here?
Its MIC is 8 µg/mL.

O=C(Cc1ccccc1)N[C@@H]1C(=O)N2C(C(=O)O)=C(Sc3ccc(Br)cc3)CS[C@H]12 [Cmpd 5, (7R)-7-[(Phenylacetyl)amino]-3-(p-bromophenylthio)-3-cephem-4-carboxylic acid] was tested. Which MIC did it give?
The MIC was 2 µg/mL (≈ 3.96 µM).

How did the MIC turn out when CN(C)C(SCc1ccc(SC2=C(C(=O)[O-])N3C(=O)[C@@H](NC(=O)Cc4ccccc4)[C@H]3SC2)c(I)c1)=[N+](C)C [Cmpd 62, (7R)-7-[(Phenylacetyl)amino]-3-(4-tetramethylisothiouroniummethyl-2-iodophenylthio)-3-cephem-4-carboxylate, inner salt] was run?
Its MIC is 4 µg/mL.

Nc1nnc(SCC(=O)N[C@@H]2C(=O)N3C(C(=O)O)=C(Sc4ccnn4-c4ccccc4)CS[C@H]23)s1 [Cmpd 120] was tested. Which MIC did it give?
Its MIC is 8 µg/mL (≈ 14.6 µM).

With O=C(Cc1ccccc1)N[C@@H]1C(=O)N2C(C(=O)O)=C(Sc3nnnn3-c3ccccc3)CS[C@H]12 [Cmpd 94, (7R)-7-[(Phenylacetyl)amino]-3-(1-N-phenyltetrazol-5-ylthio)-3-cephem-4-carboxylic acid] as the molecule, how does the MIC read?
Its MIC is 4 µg/mL (≈ 8.09 µM).

With O=C(Cc1ccccc1)N[C@@H]1C(=O)N2C(C(=O)O)=C(Sc3ccc4ccccc4c3Br)CS[C@H]12 [Cmpd 57, (7R)-7-[(Phenylacetyl)amino]-3-(1-bromo-naphthalen-2-ylthio)-3-cephem-4-carboxylic acid] as the molecule, how does the MIC read?
Its MIC is 0.5 µg/mL (≈ 0.9 µM).

Which MIC does the source give for O=C(Cc1ccccc1)N[C@@H]1C(=O)N2C(C(=O)O)=C(Sc3ccccc3-n3cccn3)CS[C@H]12 [Cmpd 132, (7R)-7-[(Phenylacetyl)amino]-3-(2-(pyrazol-1-yl)phenylthio)-3-cephem-4-carboxylic acid] here?
Its MIC is 8 µg/mL (≈ 16.2 µM).

Which MIC does the source give for C[n+]1ccc(SCc2ccccc2SC2=C(C(=O)[O-])N3C(=O)[C@@H](NC(=O)Cc4ccccc4)[C@H]3SC2)cc1 [Cmpd 73, (7R)-7-[(Phenylacetyl)amino]-3-(2-(N-methylpyridin-4-ium)thiomethyl)phenylthio)-3-cephem-4-carboxylate, inner salt] here?
The MIC was 4 µg/mL.

With O=C(Cc1ccccc1)N[C@@H]1C(=O)N2C(C(=O)O)=C(Sc3cccc4oc5ccccc5c34)CS[C@H]12 [Cmpd 21, (7R)-7-[(Phenylacetyl)amino]-3-(dibenzofuranyl-1-thio)-3-cephem-4-carboxylic acid] as the molecule, how does the MIC read?
Its MIC is 1 µg/mL (≈ 1.94 µM).

O=C(Cc1ccccc1)N[C@@H]1C(=O)N2C(C(=O)O)=C(Sc3cc(Cl)ccc3Cl)CS[C@H]12 [Cmpd 16, (7R)-7-[(Phenylacetyl)amino]-3-(2,5-dichlorophenylthio)-3-cephem-4-carboxylic acid] was tested. Which MIC did it give?
The MIC was < 0.5 µg/mL.

With O=C(Cc1ccccc1)N[C@@H]1C(=O)N2C(C(=O)O)=C(Sc3ccc(Cl)cc3Cl)CS[C@H]12 [Cmpd 28, (7R)-7-[(Phenylacetyl)amino]-3-(2,4-dichlorophenylthio)-3-cephem-4-carboxylic acid] as the molecule, how does the MIC read?
The MIC was 1 µg/mL (≈ 2.02 µM).

Which MIC does the source give for O=C(CSc1ccccc1)N[C@@H]1C(=O)N2C(C(=O)O)=C(Sc3cc(Cl)ccc3Cl)CS[C@H]12 [Cmpd 35, (7R)-7-[(Phenylthioacetyl)amino]-3-(2,5-dichlorophenylthio)-3-cephem-4-carboxylic acid] here?
The MIC was 0.5 µg/mL (≈ 0.948 µM).

For CC(=O)NC(=N)SCc1ccccc1SC1=C(C(=O)O)N2C(=O)[C@@H](NC(=O)Cc3ccccc3)[C@H]2SC1 [Cmpd 78, (7R)-7-[(Phenylacetyl)amino]-3-(2-N-acetylamidinothiomethylphenylthio)-3-cephem-4-carboxylic acid], which MIC is on record?
Its MIC is 4 µg/mL (≈ 7.19 µM).
